Data published in the kinase profiling compilation of Christmann-Franck et al. (2016).

Assays:
Assay in all cases: KINOMEscan competition binding
Details in all cases: compound 10.0 µM
TTK (human) = TTK (human) (UniProt P33981)
CHEK1 (human) = CHEK1 (human) (UniProt O14757)
MERTK (human) = MERTK (human) (UniProt Q12866)
STK33 (human) = STK33 (human) (UniProt Q9BYT3)
[1] = system: ABL1 (human), P00519 [F317L]
PLK1 (human) = PLK1 (human) (UniProt P53350)
FES (human) = FES (human) (UniProt P07332)
Chain of FES (human) (P07332 whole entry, looked up): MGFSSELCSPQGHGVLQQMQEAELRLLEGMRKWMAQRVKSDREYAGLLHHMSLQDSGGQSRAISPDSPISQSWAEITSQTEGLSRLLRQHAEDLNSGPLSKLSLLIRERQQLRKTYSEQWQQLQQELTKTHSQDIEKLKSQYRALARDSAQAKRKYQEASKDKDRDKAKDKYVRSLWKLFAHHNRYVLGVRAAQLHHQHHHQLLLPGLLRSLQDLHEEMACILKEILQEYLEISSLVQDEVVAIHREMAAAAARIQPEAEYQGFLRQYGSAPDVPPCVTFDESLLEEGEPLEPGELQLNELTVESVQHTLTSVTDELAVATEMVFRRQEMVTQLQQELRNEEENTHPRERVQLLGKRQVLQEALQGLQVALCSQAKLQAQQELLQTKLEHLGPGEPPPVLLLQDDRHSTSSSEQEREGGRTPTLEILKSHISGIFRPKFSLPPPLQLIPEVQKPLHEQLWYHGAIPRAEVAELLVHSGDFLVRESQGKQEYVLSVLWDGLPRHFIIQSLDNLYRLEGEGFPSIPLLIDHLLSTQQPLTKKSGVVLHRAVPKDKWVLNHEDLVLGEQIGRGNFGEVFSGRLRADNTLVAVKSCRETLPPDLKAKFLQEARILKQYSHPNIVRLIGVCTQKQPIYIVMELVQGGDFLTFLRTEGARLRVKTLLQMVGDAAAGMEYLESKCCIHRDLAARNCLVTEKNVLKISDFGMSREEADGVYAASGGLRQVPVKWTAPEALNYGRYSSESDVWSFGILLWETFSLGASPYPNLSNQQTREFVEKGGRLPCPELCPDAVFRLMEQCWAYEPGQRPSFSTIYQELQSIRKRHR

TNK2 (human) = TNK2 (human) (UniProt Q07912)
PLK3 (human) = PLK3 (human) (UniProt Q9H4B4)
Chain of PLK3 (human) (Q9H4B4 whole entry, looked up): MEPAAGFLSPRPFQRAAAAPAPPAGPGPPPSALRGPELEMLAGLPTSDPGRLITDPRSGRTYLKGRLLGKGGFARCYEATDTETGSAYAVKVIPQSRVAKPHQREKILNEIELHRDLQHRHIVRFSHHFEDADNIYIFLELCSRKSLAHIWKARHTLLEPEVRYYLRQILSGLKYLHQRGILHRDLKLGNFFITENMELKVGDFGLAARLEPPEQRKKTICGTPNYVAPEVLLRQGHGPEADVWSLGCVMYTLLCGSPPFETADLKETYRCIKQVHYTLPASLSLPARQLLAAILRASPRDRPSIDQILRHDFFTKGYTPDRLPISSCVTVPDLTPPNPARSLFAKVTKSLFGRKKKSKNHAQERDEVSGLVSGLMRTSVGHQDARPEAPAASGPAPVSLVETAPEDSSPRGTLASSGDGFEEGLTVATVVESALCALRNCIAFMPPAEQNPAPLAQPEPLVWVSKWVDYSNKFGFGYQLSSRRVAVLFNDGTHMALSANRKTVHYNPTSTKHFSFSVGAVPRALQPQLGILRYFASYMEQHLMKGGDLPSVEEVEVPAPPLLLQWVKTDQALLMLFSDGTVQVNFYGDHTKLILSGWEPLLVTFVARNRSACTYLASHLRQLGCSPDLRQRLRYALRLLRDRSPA

CAMKK2 (human) = CAMKK2 (human) (UniProt Q96RR4)
Chain of CAMKK2 (human) (Q96RR4 whole entry, looked up): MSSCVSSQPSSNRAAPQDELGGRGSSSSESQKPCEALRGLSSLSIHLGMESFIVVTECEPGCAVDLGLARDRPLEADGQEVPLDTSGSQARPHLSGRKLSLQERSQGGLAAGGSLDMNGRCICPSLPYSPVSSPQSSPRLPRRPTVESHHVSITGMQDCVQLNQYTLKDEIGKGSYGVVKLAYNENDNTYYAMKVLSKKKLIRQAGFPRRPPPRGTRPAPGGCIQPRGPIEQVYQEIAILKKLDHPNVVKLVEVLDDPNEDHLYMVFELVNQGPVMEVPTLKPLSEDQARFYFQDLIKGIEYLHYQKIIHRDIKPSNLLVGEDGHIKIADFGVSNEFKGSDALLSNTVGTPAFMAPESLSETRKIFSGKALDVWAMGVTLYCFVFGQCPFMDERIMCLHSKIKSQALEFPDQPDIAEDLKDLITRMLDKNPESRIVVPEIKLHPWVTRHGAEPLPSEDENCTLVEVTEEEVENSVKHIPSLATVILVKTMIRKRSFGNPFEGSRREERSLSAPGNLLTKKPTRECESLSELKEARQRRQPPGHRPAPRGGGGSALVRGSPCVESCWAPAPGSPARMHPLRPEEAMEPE

PIP4K2B (human) = PIP4K2B (human) (UniProt P78356)
PTK2 (human) = PTK2 (human) (UniProt Q05397)
RPS6KA6 KD2 (human) = RPS6KA6 KD2 (human) (UniProt Q9UK32)
NEK9 (human) = NEK9 (human) (UniProt Q8TD19)
Chain of NEK9 (human) (Q8TD19 whole entry, looked up): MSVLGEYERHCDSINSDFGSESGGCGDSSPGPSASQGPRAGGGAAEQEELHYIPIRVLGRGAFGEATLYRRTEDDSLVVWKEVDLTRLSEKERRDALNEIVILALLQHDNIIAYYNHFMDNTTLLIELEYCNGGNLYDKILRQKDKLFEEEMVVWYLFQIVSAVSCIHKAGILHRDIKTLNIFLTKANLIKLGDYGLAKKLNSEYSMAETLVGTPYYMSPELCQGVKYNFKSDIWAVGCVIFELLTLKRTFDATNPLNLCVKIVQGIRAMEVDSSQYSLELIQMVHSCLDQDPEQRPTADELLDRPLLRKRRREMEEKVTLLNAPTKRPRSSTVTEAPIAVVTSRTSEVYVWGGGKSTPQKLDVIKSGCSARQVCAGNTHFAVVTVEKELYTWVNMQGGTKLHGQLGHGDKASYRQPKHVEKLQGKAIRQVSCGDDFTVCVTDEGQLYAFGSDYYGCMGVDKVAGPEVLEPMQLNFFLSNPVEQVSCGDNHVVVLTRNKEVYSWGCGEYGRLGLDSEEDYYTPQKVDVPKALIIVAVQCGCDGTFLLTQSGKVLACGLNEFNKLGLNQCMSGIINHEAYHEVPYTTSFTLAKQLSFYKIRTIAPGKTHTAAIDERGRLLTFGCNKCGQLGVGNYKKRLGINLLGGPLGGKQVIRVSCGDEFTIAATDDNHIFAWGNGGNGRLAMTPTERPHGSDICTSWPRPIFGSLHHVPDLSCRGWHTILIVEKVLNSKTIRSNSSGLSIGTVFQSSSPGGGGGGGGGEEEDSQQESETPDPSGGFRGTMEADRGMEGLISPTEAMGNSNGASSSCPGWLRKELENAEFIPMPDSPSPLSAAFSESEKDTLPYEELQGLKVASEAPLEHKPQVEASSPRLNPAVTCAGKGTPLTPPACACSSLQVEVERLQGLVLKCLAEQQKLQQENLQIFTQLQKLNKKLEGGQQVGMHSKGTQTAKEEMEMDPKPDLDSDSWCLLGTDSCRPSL

[2] = system: FLT3 (human), P36888 [D835Y]
RIOK1 (human) = RIOK1 (human) (UniProt Q9BRS2)
STK10 (human) = STK10 (human) (UniProt O94804)
DAPK3 (human) = DAPK3 (human) (UniProt O43293)
FRK (human) = FRK (human) (UniProt P42685)
Chain of FRK (human) (P42685 whole entry, looked up): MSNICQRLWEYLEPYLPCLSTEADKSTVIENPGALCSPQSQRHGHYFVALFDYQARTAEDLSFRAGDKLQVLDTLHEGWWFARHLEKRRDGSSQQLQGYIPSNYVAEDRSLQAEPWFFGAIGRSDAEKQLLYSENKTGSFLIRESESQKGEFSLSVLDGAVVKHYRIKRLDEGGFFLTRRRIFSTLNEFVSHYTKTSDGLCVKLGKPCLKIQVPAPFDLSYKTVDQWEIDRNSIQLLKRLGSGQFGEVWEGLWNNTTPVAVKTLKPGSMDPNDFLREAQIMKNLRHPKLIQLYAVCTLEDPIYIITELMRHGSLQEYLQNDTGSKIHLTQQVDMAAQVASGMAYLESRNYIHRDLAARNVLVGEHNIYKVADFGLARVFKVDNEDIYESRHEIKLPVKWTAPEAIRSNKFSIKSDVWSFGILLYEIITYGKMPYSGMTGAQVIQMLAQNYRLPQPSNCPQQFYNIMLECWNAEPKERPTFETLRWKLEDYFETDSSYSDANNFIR

RPS6KA1 KD2 (human) = RPS6KA1 KD2 (human) (UniProt Q15418)
[3] = system: EGFR (human), P00533 [A750P; 747-749 del]
GAK (human) = GAK (human) (UniProt O14976)
PTK2B (human) = PTK2B (human) (UniProt Q14289)
FER (human) = FER (human) (UniProt P16591)
BMP2K (human) = BMP2K (human) (UniProt Q9NSY1)
DCLK3 (human) = DCLK3 (human) (UniProt Q9C098)
Chain of DCLK3 (human) (Q9C098 whole entry, looked up): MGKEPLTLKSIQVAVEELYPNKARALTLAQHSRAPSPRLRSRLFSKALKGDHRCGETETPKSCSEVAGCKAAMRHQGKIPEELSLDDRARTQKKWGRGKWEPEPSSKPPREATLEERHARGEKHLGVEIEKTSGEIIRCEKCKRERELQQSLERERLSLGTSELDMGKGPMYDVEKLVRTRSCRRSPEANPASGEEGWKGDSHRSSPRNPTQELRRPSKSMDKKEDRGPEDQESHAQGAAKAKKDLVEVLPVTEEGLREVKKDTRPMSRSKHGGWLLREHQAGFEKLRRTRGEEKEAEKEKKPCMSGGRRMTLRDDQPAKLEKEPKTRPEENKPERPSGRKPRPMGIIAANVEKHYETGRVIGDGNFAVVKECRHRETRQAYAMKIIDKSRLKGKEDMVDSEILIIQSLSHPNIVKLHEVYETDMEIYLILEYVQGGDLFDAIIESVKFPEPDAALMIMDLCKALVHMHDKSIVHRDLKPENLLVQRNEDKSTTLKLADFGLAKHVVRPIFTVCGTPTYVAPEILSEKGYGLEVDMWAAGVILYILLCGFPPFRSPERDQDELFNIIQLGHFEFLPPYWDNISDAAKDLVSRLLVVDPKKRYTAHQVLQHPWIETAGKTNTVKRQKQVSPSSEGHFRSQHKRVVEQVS

SLK (human) = SLK (human) (UniProt Q9H2G2)
ULK2 (human) = ULK2 (human) (UniProt Q8IYT8)
SIK1 (human) = SIK1 (human) (UniProt P57059)
[4] = biological target: TYK2 JH2 pseudokinase (human) (UniProt P29597)
NEK5 (human) = NEK5 (human) (UniProt Q6P3R8)
[5] = system: FLT3 (human), P36888 [D835H]
ULK1 (human) = ULK1 (human) (UniProt O75385)
[6] = system: ABL1 (human), P00519 [F317I]
SIK2 (human) = SIK2 (human) (UniProt Q9H0K1)

Chain of STK33 (human) (Q9BYT3 whole entry, looked up): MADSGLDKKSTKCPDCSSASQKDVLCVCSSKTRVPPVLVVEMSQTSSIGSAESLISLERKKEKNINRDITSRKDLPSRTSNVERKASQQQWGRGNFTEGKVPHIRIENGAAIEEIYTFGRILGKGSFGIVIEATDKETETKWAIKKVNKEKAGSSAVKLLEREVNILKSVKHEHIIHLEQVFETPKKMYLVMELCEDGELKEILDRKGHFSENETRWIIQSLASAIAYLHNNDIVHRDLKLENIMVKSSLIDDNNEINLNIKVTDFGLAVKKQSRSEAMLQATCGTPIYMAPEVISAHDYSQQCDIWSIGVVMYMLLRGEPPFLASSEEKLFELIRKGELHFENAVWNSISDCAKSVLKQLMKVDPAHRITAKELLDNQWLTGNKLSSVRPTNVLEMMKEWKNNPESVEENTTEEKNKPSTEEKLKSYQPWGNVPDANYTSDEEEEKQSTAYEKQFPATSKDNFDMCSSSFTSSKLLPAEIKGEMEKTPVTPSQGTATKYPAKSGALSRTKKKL

Question: Which results are given for `COc1cc(N2CCN(C)CC2)ccc1Nc1ncc2c(n1)N(C1CCCC1)C(C)CC(=O)N2` (stereo not given)?
Answer: kinase still bound, per cent of control (TTK (human)): 14%; kinase still bound, per cent of control (CHEK1 (human)): 14%; kinase still bound, per cent of control (MERTK (human)): 23%; kinase still bound, per cent of control (STK33 (human)): 18%; kinase still bound, per cent of control [1]: 30%; kinase still bound, per cent of control (PLK1 (human)): 2.1%; kinase still bound, per cent of control (FES (human)): 26%; kinase still bound, per cent of control (TNK2 (human)): 7.4%; kinase still bound, per cent of control (PLK3 (human)): 11%; kinase still bound, per cent of control (CAMKK2 (human)): 31%; kinase still bound, per cent of control (PIP4K2B (human)): 31%; kinase still bound, per cent of control (PTK2 (human)): 1.9%; kinase still bound, per cent of control (RPS6KA6 KD2 (human)): 4.7%; kinase still bound, per cent of control (NEK9 (human)): 27%; kinase still bound, per cent of control [2]: 26%; kinase still bound, per cent of control (RIOK1 (human)): 32%; kinase still bound, per cent of control (STK10 (human)): 10%; kinase still bound, per cent of control (DAPK3 (human)): 13%; kinase still bound, per cent of control (FRK (human)): 7%; kinase still bound, per cent of control (RPS6KA1 KD2 (human)): 22%; kinase still bound, per cent of control [3]: 33%; kinase still bound, per cent of control (GAK (human)): 1%; kinase still bound, per cent of control (PTK2B (human)): 13%; kinase still bound, per cent of control (FER (human)): 21%; kinase still bound, per cent of control (BMP2K (human)): 19%; kinase still bound, per cent of control (DCLK3 (human)): 4%; kinase still bound, per cent of control (SLK (human)): 3.2%; kinase still bound, per cent of control (ULK2 (human)): 1.2%; kinase still bound, per cent of control (SIK1 (human)): 14%; kinase still bound, per cent of control [4]: 32%; kinase still bound, per cent of control (NEK5 (human)): 30%; kinase still bound, per cent of control [5]: 30%; kinase still bound, per cent of control (ULK1 (human)): 7.8%; kinase still bound, per cent of control [6]: 29%; kinase still bound, per cent of control (SIK2 (human)): 26%
